In patent US8637050B2, “Peptide vaccines against group A streptococci” (The United States of America, as represented by the …, priority 2001, dated 2014):
No end group written: not given here.

How the values were obtained:
[1] = system: rabbit sera prepared against whole M protein; assay: ELISA: peptide recognition by anti-M protein rabbit sera; format: binding
Description: Overlapping peptides representing each M type were assessed for their immunogenicity using ELISA and dot-immunoblot.
(§1) Levels of anti-M protein antibodies in mouse sera were determined by an enzyme-linked immunosorbent assay (ELISA) using either synthetic peptides or whole M protein as antigen. Microtiter plates (DYNEX Immulon 2 HB) were coated with 10 μg/ml antigen in 10 mM phosphate-buffered saline (PBS) at 4° C. overnight. Plates were rinsed three times with wash buffer (0.05% Tween 20 in 10 mM PBS, pH 7.2) and blocked with 1% BSA in PBS for one hour at 37° C. The appropriate test sera were applied at a starting dilution of 1:1000 and serially diluted two fold down the plate in PBS. Plates were incubated at 37° C. for 30 minutes and subsequently rinsed three times. Goat anti-rabbit or goat anti-mouse Ig-peroxidase conjugate diluted 1:10,000 in PBS was added to all wells and incubated for two hours at 37° C. Plates were rinsed three times with wash buffer and freshly prepared TMB peroxidase (Kirkegaard and Perry Laboratories) was added. Reactions were quenched with 0.18 M H2SO4 after 30 minutes at room temperature and OD450 was measured with a Labsystems Multiskan plate reader using Ascent software. ELISA titers are expressed as the reciprocal of the last dilution which gave a reading OD450>0.10.
The immunoreactivity of several synthetic peptides was determined by ELISA using rabbit sera prepared against whole M protein. The synthetic peptides are representative of relatively small portions of the M protein N-terminus; therefore, it was advantageous to determine if the epitopes contained within particular peptides were immunoreactive with sera prepared against whole M protein. It was shown that the whole anti-M protein rabbit sera of the respective serotypes could bind to each of the synthetic peptides within that serotype. However, some peptides were more highly immunoreactive than others, thus being better suited for use in the animal studies.

[2] = system: anti-M protein antibodies in mouse sera; assay: ELISA of sera of mice immunized s.c. with peptide in alum (immunogenicity); format: in vivo, mice (Swiss Webster)
Description: as §1
(§2) Mice (6 week old female Swiss Webster, Harley-Sprague) were immunized subcutaneously (s.c.) with either the peptide in alum or alum alone for control groups. Peptides were rotated in the alum mixture for 2 hours at 4° C. and stored at 4° C. overnight prior to use.

[3] = system: GAS; assay: Opsonophagocytosis assay in vitro with sera of immunized mice; format: cell-based, Group A streptococci; conditions: human whole blood, 3 hours
Description: (§3) Opsonophagocytosis assays were performed as previously described in Lancefield, R. C., Persistence of type-specific antibodies in man following infection with group A streptococci, 1959, J. Immunol., 89:307. Briefly, diluted serum (50 μl) was added to mid-log phase GAS (10^3 CFU) in Todd-Hewitt broth (50 μl) and whole, heparinized blood (500 μl) from a nonopsonic human donor. Mixtures were briefly vortexed and placed at 37° C. in a shaker for 3 hours. Dilutions were then plated on trypticase soy agar plates (5% sheep blood) to quantitate viable organisms. The % killing is expressed as [(CFU control-CFU test)/CFU control]×100.
Each of the sera tested positive in the assay and was able to reduce the amount of viable bacteria relative to controls.

[4] = system: GAS M type M3; assay: Opsonophagocytosis / bactericidal activity in vitro, GAS M type M3; format: cell-based, Group A streptococci
Description: as §3
(§4) Some of the peptides tested in the previous examples were tested for cross-type protection using the methods described above. […] The peptide tested and serotype against which it was tested is indicated.

[5] = system: GAS M type M43; assay: Opsonophagocytosis / bactericidal activity in vitro, heterologous GAS M type M43; format: cell-based, Group A streptococci
Description: as §3, §4

[6] = system: streptococci (GAS); assay: Nasopharyngeal colonization challenge in vaccinated mice; format: in vivo; conditions: vaccinated mice relative to alum-only control mice; nasal wash 24 hours after 10^4 CFU challenge
Description: as §2
Mice were challenged intranasally one week after the final booster injection was administered. Prior to being challenged, mice were anesthetized with a ketamine/xylazine mixture. Mice were then given 10^4-10^5 CFU (10 μl) of streptococci intranasally via a microliter pipette. They were sacrificed 24 hours after the challenge and the nasopharyngeal passages were washed with approximately 100 μl physiological saline which was collected and immediately placed on ice. Dilutions of the wash were then plated on trypticase soy agar plates (5% sheep blood) and incubated at 37° C. for 18 hours to quantitate viable organisms. Nasopharyngeal colonization in immunized mice was compared to non-immunized controls. Statistical analysis of the NP data was accomplished using the t-test and rank sum test.
Nasopharyngeal (NP) colonization challenge experiments were performed on mice vaccinated (s.c.) with either M3-1 or M3-2 peptide in alum in comparison to control animals which received alum only. The nasopharyngeal colonization challenge was performed by doing a nasal wash 24 hours after challenge. […]

Row | Sequence | immunoreactivity by ELISA using rabbit sera prepared against whole M protein [1] | further results
1 | CAEKQRLEDLGQKFERLKQRS [Peptide M12-2] | confirmed | ELISA (elicitation of antibodies) [2]: yes (weak)
2 | CLDQVTQLYNKHNSNYQQYSA [Peptide M3-4] | confirmed | ELISA (elicitation of antibodies) [2]: no
3 | CDARSVNGEFPRHVKLKNEIE [Peptide M3-1] | confirmed | ELISA (elicitation of antibodies) [2]: yes; Opsono (in vitro) [3]: opsonophagocytize bacteria more effectively and yes; reduction of M3 type bacteria ([4]; in vitro versus control): significantly reduce; % CFU reduction ([4]; in vitro, GAS M type M3): 70-90%; reduction of M43 type bacteria ([5]; in vitro versus control): significantly reduce; % CFU reduction ([5]; in vitro, heterologous GAS M type M43): 80-90%; Reduction of colonization [6]: 87%
4 | CEMQQRGTNFGPLLASTMRDNH [Peptide M33-3] | confirmed | –
5 | CTEVKAAGQSAPKGTNVSADL [Peptide M11-4] | confirmed | –
6 | CENSMLQANNDNLTDQNKNLTD [Peptide M6-4] | confirmed | –
7 | CKKEATKLSEAELYNKIQELEE [st2967-3] | confirmed | –
8 | CKDEVLSKFSVPGHVWAHERE [Peptide M101-2] | confirmed | –
9 | CESSNNAESSNISQESKLINT [Peptide M22-1] | confirmed | –
10 | CELPYEARYKAWKSENDELREN [Peptide M75-2] | confirmed | –
11 | CEIQNHQLTVENKKLKTDKEQ [Peptide M18-3] | confirmed | –
12 | CKAWKSENDELRENYRKTLDK [Peptide M75-4] | confirmed | –
13 | CELHDKIKNLEEEKAELFEKLD [Peptide M2-3] | confirmed | –
14 | CEYDDLLAKHGELLSEYDALK [Peptide M92-3] | confirmed | –
15 | CELHNKIADLEEERGAHLDKID [Peptide M89-5] | confirmed | –
16 | CELTLQQKYDALTNENKSLRRE [Peptide M59-2] | confirmed | –
17 | CDNQSPAPAPVKKEAKKLNEAE [Peptide M73-5] | confirmed | –
18 | CNSMLQANNDKLTTENKNLTD [Peptide M6-5] | confirmed | –
19 | CNSKNPAPAPASAVPVKKEATK [st2967-1] | confirmed | –
20 | CRVPGTLWLRQKEENDKLKLEK [Peptide M43-3] | confirmed | –
21 | CNSKNPAPAVPVKKEATKLSE [st2967-5] | confirmed | –
22 | CSDASLHNRITDLEEEREKLLNK [Peptide M77-2] | confirmed | –
23 | CHEKVTQAREAVIREMQQRGT [Peptide M33-2] | confirmed | –
24 | CDSSSRDITEAGVSKFWKSKFD [Peptide M82-1] | confirmed | –
25 | CSELYLQQYYDNKSNGYKGDW [Peptide M12-7] | confirmed | –
26 | CNGDGNPRVVIEDLAANNPAIQ [Peptide M1-7] | confirmed | –
27 | CRREEKDRYLYEKEELEKKNK [Peptide M94-4] | confirmed | –
